The text below walks through data of patent EP0703776B1, “UTILIZATION OF A PEPTIDE HAVING A LYSIN GROUP AND AN ALANINE GROUP IN THE TERMINAL POSITION FOR THE PREPARATION OF A DEPIGMENTING COMPOSITION, AND DEPIGMENTING COMPOSITION THUS OBTAINED” (PARFUMS CHRISTIAN DIOR, priority 1993, dated 1997).

This test has as its system tyrosinase de champignon. Description: Tyrosinase inhibition (kinetics of dopaquinone formation at 480 nm, substrates L-tyrosine + L-dopa). It counts as biochemical.

No end group written: not given here.

“KCTCCA (cysteine pairing not given here) [hexapeptide, commercialement disponible chez Sigma, France]”: the “pourcentage d'inhibition de la tyrosinase” value is 98% (peptide 5.10^-3 M, series T0 (substrates added at time T0)); 98% (peptide 5.10^-4 M, series T 15 min (substrates added 15 min after mixing peptide and tyrosinase)). Also, the “effet d'inhibition de la tyrosinase” value (peptide 5.10^-6 M, result in words) is “déjà très significative”.
